According to patent US20250163038A1, “CBL-B MODULATORS AND USES THEREOF” (Nimbus Clio, Inc., priority 2021, published 2025):

Experiments:
[1] = system: Jurkat (clone E6-1) cells with NFAT luciferase reporter; assay: Jurkat reporter assay (NFAT Luciferase); format: cell-based; conditions: Homo sapiens; Jurkat NFAT luciferase reporter cells, anti-CD3 stimulation, 6 hr; read-out: Jurkat NFAT EC50
[2] = molecular target: T1, Recombinant human c-Cbl (aa 47-435) (Homo sapiens, UniProt P22681); assay: c-Cbl Biochemical Assay (TR-FRET); conditions: hc-Cbl Biochemical Assay (TR-FRET); read-out: TR-FRET hcCbl IC50
T1 sequence (P22681 47-435): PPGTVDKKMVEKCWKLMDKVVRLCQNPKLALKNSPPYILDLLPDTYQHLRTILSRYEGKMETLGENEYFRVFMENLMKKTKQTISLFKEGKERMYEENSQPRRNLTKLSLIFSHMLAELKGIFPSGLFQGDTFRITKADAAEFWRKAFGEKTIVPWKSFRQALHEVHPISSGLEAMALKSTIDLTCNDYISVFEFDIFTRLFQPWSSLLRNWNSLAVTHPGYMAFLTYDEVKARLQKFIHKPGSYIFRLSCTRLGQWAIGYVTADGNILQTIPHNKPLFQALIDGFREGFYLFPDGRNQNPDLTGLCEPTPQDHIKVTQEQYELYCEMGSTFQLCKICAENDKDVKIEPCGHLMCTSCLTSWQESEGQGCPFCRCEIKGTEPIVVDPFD

[3] = molecular target: Recombinant human Cbl-b (aa 36-427) (Homo sapiens, UniProt Q13191); assay: Cbl-b Biochemical Assay (TR-FRET); conditions: read-out: TR-FRET hCbl-b IC50
Sequence of Recombinant human Cbl-b (aa 36-427) (Q13191 36-427): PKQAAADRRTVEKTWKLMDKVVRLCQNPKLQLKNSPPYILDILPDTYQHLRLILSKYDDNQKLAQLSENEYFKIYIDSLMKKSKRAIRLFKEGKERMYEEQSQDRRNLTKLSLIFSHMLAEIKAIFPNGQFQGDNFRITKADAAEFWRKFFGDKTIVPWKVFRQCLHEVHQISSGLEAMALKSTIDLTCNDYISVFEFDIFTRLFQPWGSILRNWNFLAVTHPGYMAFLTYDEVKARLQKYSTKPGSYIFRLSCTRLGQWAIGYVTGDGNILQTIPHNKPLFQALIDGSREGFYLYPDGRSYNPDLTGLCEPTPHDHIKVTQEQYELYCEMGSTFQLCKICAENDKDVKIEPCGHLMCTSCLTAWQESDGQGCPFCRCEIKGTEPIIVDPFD

| Structure (SMILES) | EC50 [1] [nM] | IC50 [2] [nM] | IC50 [3] [nM] |
| --- | --- | --- | --- |
| Cn1cnnc1-c1cc(F)ccc1-c1cccc(-c2nc3cc(CN[C@@H]4CCC[C@@H]4O)cc(C(F)(F)F)c3[nH]2)c1 [BM-2, (1S,2R)-2-(((2-(4′-Fluoro-2′-(4-methyl-4H-1,2,4-triazol-3-yl)-[1,1′-biphenyl]-3-yl)-7-(trifluoromethyl)-1H-benzo[d]imidazol-5-yl)methyl)amino)cyclopentan-1-ol] | 200 to 1000 | 1000 to 10000 | < 200 |
| Cn1cnnc1-c1cc(F)ccc1-c1cccc(-c2nc3cc(CNCC(C)(C)O)cc(C(F)(F)F)c3o2)c1 [AE-2, 1-(((2-(4′-Fluoro-2′-(4-methyl-4H-1,2,4-triazol-3-yl)-[1,1′-biphenyl]-3-yl)-7-(trifluoromethyl)benzo[d]oxazol-5-yl)methyl)amino)-2-methylpropan-2-ol] | 200 to 1000 | 1000 to 10000 | < 200 |
| Cn1cnnc1-c1cc(F)ccc1-c1cccc(-c2nc3cc(CNCCC4CCCC4)cc(C(F)(F)F)c3o2)c1 [HN-1, 2-Cyclopentyl-N-((2-(4′-fluoro-2′-(4-methyl-4H-1,2,4-triazol-3-yl)-[1,1′-biphenyl]-3-yl)-7-(trifluoromethyl)benzo[d]oxazol-5-yl)methyl)ethan-1-amine] | 200 to 1000 | < 200 | < 200 |
| CN(Cc1cc2nc(-c3cccc(-c4ccc(F)cc4-c4nncn4C)c3)oc2c(F)c1F)[C@@H]1CCC[C@@H]1O [JJ-3, (1S,2R)-2-(((6,7-Difluoro-2-(4′-fluoro-2′-(4-methyl-4H-1,2,4-triazol-3-yl)-[1,1′-biphenyl]-3-yl)benzo[d]oxazol-5-yl)methyl)(methyl)amino)cyclopentan-1-ol] | 200 to 1000 | < 200 | < 200 |
| Cn1cnnc1-c1cc(F)ccc1-c1cc(-c2nc3cc(CNCC4CCC4)c(F)c(F)c3o2)nc(C2CC2)c1 [AGE-1, 1-Cyclobutyl-N-((2-(6-cyclopropyl-4-(4-fluoro-2-(4-methyl-4H-1,2,4-triazol-3-yl)phenyl)pyridin-2-yl)-6,7-difluorobenzo[d]oxazol-5-yl)methyl)methanamine] | < 200 | < 200 | < 200 |
| Cn1cnnc1-c1ccccc1-c1cc(-c2nc3cc(CN4CCC5(CC5)C4)cc(C(F)(F)F)c3[nH]2)nc(C2CC2)c1 [AAS-2, 5-((5-Azaspiro[2.4]heptan-5-yl)methyl)-2-(6-cyclopropyl-4-(2-(4-methyl-4H-1,2,4-triazol-3-yl)phenyl)pyridin-2-yl)-7-(trifluoromethyl)-1H-benzo[d]imidazole] | 1000 to 10000 | 1000 to 10000 | < 200 |
| Cn1cnnc1-c1cc(F)ccc1-c1cc(-c2nc3cc(CNCC4(O)CCCC4)ccc3o2)nc(C2CC2)c1 [AFE-1, 1-({[(2-{6-Cyclopropyl-4-[4-fluoro-2-(4-methyl-1,2,4-triazol-3-yl)phenyl]pyridin-2-yl}-1,3-benzoxazol-5-yl)methyl]amino}methyl)cyclopentan-1-ol] | < 200 | < 200 | < 200 |
| CO[C@@H](C)CNCc1cc(C)c2oc(-c3cc(-c4ccc(F)cc4-c4nncn4C)cc(C4CC4)n3)nc2c1 [AHF-1, [(2-{6-cyclopropyl-4-[4-fluoro-2-(4-methyl-1,2,4-triazol-3-yl)phenyl]pyridin-2-yl}-7-methyl-1,3-benzoxazol-5-yl)methyl][(2S)-2-methoxypropyl]amine] | < 200 | < 200 | < 200 |
| Cn1cnnc1-c1cc(C#N)ccc1-c1cccc(-c2nc3cc(CN[C@@H]4CCC[C@@H]4O)cc(C(F)(F)F)c3o2)c1 [CP-4, 3′-(5-((((1R,2S)-2-Hydroxycyclopentyl)amino)methyl)-7-(trifluoromethyl)benzo[d]oxazol-2-yl)-2-(4-methyl-4H-1,2,4-triazol-3-yl)-[1,1′-biphenyl]-4-carbonitrile] | < 200 | < 200 | < 200 |
